Read-outs that look alike come from different tables or passages of the source.

Test [1] relates to RPMI 8226 cells. As to the kind of experiment: Antiproliferative assay (XTT, 72 h). As to conditions: for IC50: RPMI 8226 cells, 72 h, XTT, mean ± SD, n = 3. The format is cell-based, human.
The target of test [2] is T1, 26S proteasome (Homo sapiens, UniProt P28074).
T1 sequence (P28074 60-263): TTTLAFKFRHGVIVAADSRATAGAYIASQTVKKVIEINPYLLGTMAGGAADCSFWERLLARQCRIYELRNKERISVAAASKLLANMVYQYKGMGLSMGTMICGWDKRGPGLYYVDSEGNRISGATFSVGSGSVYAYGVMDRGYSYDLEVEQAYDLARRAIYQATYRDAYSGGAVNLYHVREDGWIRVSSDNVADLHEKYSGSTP
As to the kind of experiment: Proteasome inhibitory activity (Suc-LLVY-amc) in RPMI 8226 cell lysate. The format is biochemical. The protocol:
RPMI 8226 cells (1 × 10^6 cells/mL) were collected, centrifuged, and washed twice with cold PBS (Gibco). The supernatant was discarded, and 200 μL of ice-cold lysis buffer (NP40 cell lysis buffer (Invitrogen, Eugene, OR, USA), supplemented with 1 mM PMSF (Sigma) and protease inhibitor cocktail (Sigma), was added to the pellet. Cells were kept on ice for 30 min and vortexed every 10 min. Samples were then centrifuged at 4 °C for 10 min at 16,000× g. Supernatant containing the proteins was collected. Protein quantification was performed using the Coomassie (Bradford) Protein Assay Kit (ThermoFisher, Waltham, MA, USA) following the manufacturer instructions. In each well of a 96-well black plate (ThermoFisher), 10 µg of proteins were mixed with assay buffer (50 mM Tris-HCl, pH 7.5, 40 mM KCl, 5 mM MgCl2, 0.5 mM ATP, 1 mM DTT, 0.5 mg/mL BSA) in 180 µL total volume. […] The plate was then incubated for 30 min at 37 °C. After incubation, the reaction was started by adding the fluorometric peptide substrate Suc-LLVY-amc (Bio-Techne, Minneapolis, MN, USA) at a final concentration of 100 µM, except for the blank wells. Following 1 h incubation at 37 °C in the dark, the fluorescence signal was red (excitation: 380 nm, emission: 440–460 nm) using a Cytation 3 plate reader (BioTek). The percentage of 26S proteasome activity was measured by comparing the fluorescence of the sample treated with the vehicle control wells and multiplied by 100. The IC50 value was calculated as mentioned above, and each compound was tested in triplicate in three independent experiments.

In test [3] the test system is RPMI 8226/BTZ100 cells. Nature of the test: cells. The test is classed as cell-based, human. As to conditions: for IC50: read-out: IC50 Value Antiproliferative Activity RPMI 8226/BTZ100; for Increased resistance (RPMI 8226/BTZ100 vs. RPMI 8226): ratio of IC50 in resistant vs. parental cells.
The subject of test [4] is 3D co-culture spheroids containing RPMI 8226 cells and mesenchymal stem cells (MSC) in a 5:1 ratio. Nature of the test: Antiproliferative assay in 3D co-culture spheroids (CellTiter-Glo 3D, 48 h). The format is cell-based, human. The following applies: RPMI 8226 + MSC 5:1 spheroids, mean ± SD, n = 3. As to the method: The multiple myeloma human plasma cells RPMI 8226 were purchased from American Type Culture Collection (ATCC, Manassas, VA, USA) and cultured in RPMI 1640 medium (Gibco, Paisley, UK) supplemented with 50 µg/mL streptomycin sulfate, 50 U/mL penicillin G sodium salt (Gibco, Grand Island, NY, USA) and 10% fetal bovine serum (FBS) (Biowest, Nuaillé, France). […] Human MSC from the bone marrow were purchased from PromoCell and were cultured in Mesenchymal Stem Cell Growth Medium 2 (PromoCell, Heidelberg, Germany) supplemented with 100 μg/mL streptomycin sulfate and 100 U/mL penicillin G sodium salt.
RPMI 8226 cells and MSC were mixed in a 5:1 ratio. The cell mixture was centrifuged, and medium containing 20% collagen I (Gibco) adjusted to pH 7 was added to the cell pellet. Five μL drops were plated in each well of an ice-cold 96-well ultra-low attachment U-bottom plate (Corning, Kennebunk, MA, USA) and the plate was incubated for 30 min at 37 °C and 5% CO2 atmosphere. After the incubation, 200 μL of RPMI 1640 medium (Gibco) supplemented with 50 µg/mL streptomycin sulfate, 50 U/mL penicillin G sodium salt (Gibco) and 10% FBS (Biowest) was added to each well. The 3D spheroids were formed after 48 h.
RPMI 8226 and RPMI 8226/BTZ100 cells were seeded in 96-well plates (Costar, Kennebunk, MA, USA) at a density of 15,000 cells per well and directly treated for 72 h with the various compounds using increasing concentrations (0.31–2000 nM). […] Following the treatment, 100 μL of medium was carefully removed from each well and collagenase (1.5 μL of a 100 mg/mL solution, Sigma) was added. The plate was shaken at 37 °C for 10 min at 350 rpm. Then, 100 μL of CellTiter-Glo 3D reagent (Promega, Fitchburg, WI, USA) was added to each well. The plate was incubated for 5 min at 37 °C under agitation at 250 rpm, followed by 25 min at room temperature without agitation. Finally, the luminescence was measured using a Cytation 3 plate reader (BioTek). The percentage of cell proliferation and calculation of the IC50 value were determined as previously described. Each compound was tested in triplicate in three independent experiments.

Test [5] deals with HDAC. As to the kind of experiment: HDAC inhibitory activity in RPMI 8226 cells (MAL substrate, UHPLC-MS). The test is classed as cell-based, human. As to conditions: 8 h; for Inhibition of HDAC activity: 10 µM. The protocol:
RPMI 8226 cells were seeded in 96-well plates (Costar) at a density of 15,000 cells per well in 25 µL of medium containing the HDAC substrate N-(4-methyl-7-aminocoumarinyl)-Nα-(t-butoxycarbonyl)-Nω-acetyllysineamide (21 µM, MAL, Sigma). The cells were directly treated with the compounds at 10 µM or with Ent (0.4–250 µM) for 8 h to obtain a final volume of 50 µL. […] Following the incubation, the reaction was stopped by adding 10 µL of 6X RIPA buffer, supplemented with protease inhibitor (Sigma). Then, 160 µL of cold acetonitrile were added and the plate was placed for 10 min at −80 °C. The plate was centrifuged at 5000× g for 10 min at 4 °C, and the supernatant was transferred into a UHPLC-adapted 96-well plate (Nunc 96-well plate conical bottom, ThermoFisher) and sealed. The substrate (MAL) and its deacetylated product (dMAL) were measured using a UHPLC-MS method as previously described. The percentage of HDAC inhibition is given by 100 − [(tested sample × 100/control sample)], and the dose-response curve of Ent was established.

[6] abbreviates: 26S proteasome in RPMI 8226 cell lysate, 30 min preincubation, Suc-LLVY-amc 100 µM, mean ± SD, n = 3; read-out: IC50 Value PI Activity.
Setting [7] is: RPMI 8226 cells resistant to BTZ, 72 h, XTT, mean ± SD, n = 3.
[8] abbreviates: read-out: IC50 Value PI Activity; 26S proteasome in RPMI 8226 cell lysate, 30 min preincubation, Suc-LLVY-amc 100 µM, mean ± SD, n = 3.

Consider `CC(C)CC(NC(=O)C(Cc1ccccc1)NC(=O)CCC(=O)NCc1ccc(C(=O)Nc2ccccc2N)cc1)B1OC2CC3CC(C3(C)C)C2(C)O1` [Compound 1, N^1-(4-((2-aminophenyl)carbamoyl)benzyl)-N^4-((2R)-1-(((1R)-3-methyl-1-((3aR)-3a,5,5-trimethylhexahydro-4,6-methanobenzo[d][1,3,2]dioxaborol-2-yl)butyl)amino)-1-oxo-3-phenylpropan-2-yl)succinimide], for which the IC50 in test [1] (Homo sapiens) is 678 ± 42.5 nM; in test [2] (setting [6]) it was 10.3 ± 2.7 nM.

As for `CC(C)C[C@H](NC(=O)[C@@H](Cc1ccccc1)NC(=O)c1ccc(C(=O)Nc2ccccc2N)cc1)B1OC2CC3CC(C3(C)C)[C@]2(C)O1` (stereo partly drawn) [Compound 2, N^1-(2-aminophenyl)-N^4-((2R)-1-(((1R)-3-methyl-1-((3aS)-3a,5,5-trimethylhexahydro-4,6-methanobenzo[d][1,3,2]dioxaborol-2-yl)butyl)amino)-1-oxo-3-phenylpropan-2-yl)terephthalamide], the IC50 stood at 37.1 ± 2.9 nM in test [1] (Homo sapiens); 112 ± 13 nM in test [3] (Homo sapiens, RPMI-8226, 72 h); 32.5 ± 7.5 nM in test [4] (Homo sapiens); 9.5 ± 2.3 nM in test [2] (setting [6]). The “Fold less active than compound 3 in RPMI 8226 cells” value in test [1] (compared to compound 3) is recorded as “ca. 4 times”. The “Increased resistance (RPMI 8226/BTZ100 vs. RPMI 8226)” value in test [3] amounted to 3.0 fold. Moreover, the “Inhibition of HDAC activity” value in test [5] was determined as 50%.

Take `CC(C)C[C@H](NC(=O)[C@@H](Cc1ccccc1)NC(=O)c1ccc(C(=O)NCc2ccc(C(=O)Nc3ccccc3N)cc2)cc1)B1OC2CC3CC(C3(C)C)[C@@]2(C)O1` (stereo partly drawn) [Compound 4, N^1-(4-((2-aminophenyl)carbamoyl)benzyl)-N^4-((2R)-1-(((1R)-3-methyl-1-((3aR)-3a,5,5-trimethylhexahydro-4,6-methanobenzo[d][1,3,2]dioxaborol-2-yl)butyl)amino)-1-oxo-3-phenylpropan-2-yl)terephthalamide]: the IC50 was 802 ± 72.7 nM in test [1] (Homo sapiens) and above 50 nM in test [2] (setting [6]).

For `CC(C)C[C@H](NC(=O)[C@@H](Cc1ccccc1)NC(=O)c1cnc(C(=O)NCc2ccc(C(=O)Nc3ccccc3N)cc2)cn1)B1OC2CC3CC(C3(C)C)[C@@]2(C)O1` (stereo partly drawn) [Compound 5, N^2-(4-((2-aminophenyl)carbamoyl)benzyl)-N^5-((2R)-1-(((1R)-3-methyl-1-((3aR)-3a,5,5-trimethylhexahydro-4,6-methanobenzo[d][1,3,2]dioxaborol-2-yl)butyl)amino)-1-oxo-3-phenylpropan-2-yl)pyrazine-2,5-dicarboxamide], the IC50 in test [1] (Homo sapiens) was found to be 25.2 ± 2.2 nM; in test [3] (Homo sapiens, RPMI-8226, 72 h), 203 ± 36.1 nM; in test [4] (Homo sapiens), 65.1 ± 14.1 nM; in test [2] (setting [6]), 14.8 ± 2.5 nM. Also, the “Increased resistance (RPMI 8226/BTZ100 vs. RPMI 8226)” value in test [3] is reported as 8.0 fold.

`CC(C)C[C@H](NC(=O)[C@@H](Cc1ccccc1)NC(=O)Cc1ccc(C(=O)Nc2ccccc2N)cc1)B1OC2CC3CC(C3(C)C)[C@@]2(C)O1` (stereo partly drawn) [Compound 6, N-(2-aminophenyl)-4-(2-(((2R)-1-(((1R)-3-methyl-1-((3aR)-3a,5,5-trimethylhexahydro-4,6-methanobenzo[d][1,3,2]dioxaborol-2-yl)butyl)amino)-1-oxo-3-phenylpropan-2-yl)amino)-2-oxoethyl)benzamide]: the IC50 in test [1] (Homo sapiens) was 337 ± 49.4 nM; in test [2] (setting [6]), above 50 nM.

For the compound `CC(C)C[C@H](NC(=O)[C@@H](Cc1ccc(N(CCCl)CCCl)cc1)NC(=O)c1cnccn1)B1OC2CC3CC(C3(C)C)[C@]2(C)O1` (stereo partly drawn) [Compound 8, N-((2R)-3-(4-(bis(2-chloroethyl)amino)phenyl)-1-(((1R)-3-methyl-1-((3aS)-3a,5,5-trimethylhexahydro-4,6-methanobenzo[d][1,3,2]dioxaborol-2-yl)butyl)amino)-1-oxopropan-2-yl)pyrazine-2-carboxamide], the IC50 amounted to 19.6 ± 0.4 nM in test [1], 1010 ± 88.6 nM in test [3] (setting [7]), 30 ± 1.6 nM in test [4] and 12.1 ± 1.1 nM in test [2] (setting [8]).

As for `CC(C)C[C@H](NC(=O)[C@@H](Cc1ccc(N(CCCl)CCCl)cc1)NC(=O)c1cnc(Cl)cn1)B1OC2CC3CC(C3(C)C)[C@]2(C)O1` (stereo partly drawn) [Compound 9, N-((2R)-3-(4-(bis(2-chloroethyl)amino)phenyl)-1-(((1R)-3-methyl-1-((3aS)-3a,5,5-trimethylhexahydro-4,6-methanobenzo[d][1,3,2]dioxaborol-2-yl)butyl)amino)-1-oxopropan-2-yl)-5-chloropyrazine-2-carboxamide], the IC50 in test [1] is 37.6 ± 1.1 nM; in test [3] (setting [7]) it was 1030 ± 205 nM; in test [4], 188 ± 42.5 nM; in test [2] (setting [8]), above 50 nM.

Consider `CC(C)C[C@H](NC(=O)c1cnc(C(=O)Nc2ccccc2N)cn1)B1OC2CC3CC(C3(C)C)[C@]2(C)O1` (stereo partly drawn) [Compound 10, N^2-(2-aminophenyl)-N^5-((1R)-3-methyl-1-((3aS)-3a,5,5-trimethylhexahydro-4,6-methanobenzo[d][1,3,2]dioxaborol-2-yl)butyl)pyrazine-2,5-dicarboxamide], for which the results for the IC50 in test [1] (Homo sapiens) and in test [2] (setting [6]) were above 2000 nM and above 50 nM, respectively.

On to `Nc1ccccc1NC(=O)c1ccc(CNC(=O)OCc2cccnc2)cc1` [Ent, entinostat], for which the IC50 came to 329 ± 25.7 nM in test [1] (Homo sapiens); 562 ± 51.7 nM in test [3] (Homo sapiens, RPMI-8226, 72 h); 349 ± 133 nM in test [4] (Homo sapiens); 9300 ± 700 nM in test [5] (0.4–250 µM, read-out: HDAC inhibition IC50). The “Inhibition of HDAC activity” value in test [5] turned out to be 51%.

The values above are taken from article PMC9920246, “Entinostat-Bortezomib Hybrids against Multiple Myeloma” (Molecules, 2023).
